Experimental findings from ChEMBL document CHEMBL1944604, “Aminopurine based JNK inhibitors for the prevention of ischemia reperfusion injury” (Bioorg Med Chem Lett, 2012) are described below.

Data set [1] concerns the target Mitogen-activated protein kinase 14 (Homo sapiens, UniProt Q16539). Nature of the data set: Inhibition of p38alpha using MBP and [gamma33P]ATP as substrate after 60 mins by scintillation counting.
Data set [2] concerns the target Mitogen-activated protein kinase 9 (Homo sapiens, UniProt P45984). Nature of the data set: Inhibition of full length Hexa-His-tagged JNK2 using GST-tagged cJun and [gamma33P]ATP as substrate after 60 mins by scintillation counting.
Data set [3] deals with Mitogen-activated protein kinase 10 (Homo sapiens, UniProt P53779). Nature of the data set: Inhibition of full length Hexa-His-tagged JNK3 using GST-tagged cJun and [gamma33P]ATP as substrate after 60 mins by scintillation counting.
Sequence of Mitogen-activated protein kinase 10 (P53779 whole entry): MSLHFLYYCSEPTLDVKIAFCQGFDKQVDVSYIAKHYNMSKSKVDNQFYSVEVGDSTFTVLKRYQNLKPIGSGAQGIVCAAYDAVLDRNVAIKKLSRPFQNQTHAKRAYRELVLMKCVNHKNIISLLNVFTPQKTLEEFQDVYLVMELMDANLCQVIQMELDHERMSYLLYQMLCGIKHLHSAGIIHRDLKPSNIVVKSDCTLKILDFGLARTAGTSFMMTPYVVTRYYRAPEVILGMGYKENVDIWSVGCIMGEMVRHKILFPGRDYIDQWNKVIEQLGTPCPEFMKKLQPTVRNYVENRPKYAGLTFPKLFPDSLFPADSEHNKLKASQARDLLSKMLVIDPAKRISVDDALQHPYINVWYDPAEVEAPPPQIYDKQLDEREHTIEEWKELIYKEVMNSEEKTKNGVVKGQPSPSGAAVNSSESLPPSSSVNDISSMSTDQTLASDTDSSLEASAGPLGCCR
Data set [4] can be described thus: Aqueous solubility of the compound at pH 7.4. In kind it is physicochemical.
Data set [5] addresses Mitogen-activated protein kinase 8 (Homo sapiens, UniProt P45983). Nature of the data set: Inhibition of full length Hexa-His-tagged JNK1 using GST-tagged cJun and [gamma33P]ATP as substrate after 60 mins by scintillation counting.
The nature of data set [6]: Metabolic stability in human liver S9 fraction assessed as compound remaining after 60 mins. Particulars: read-out: Stability. In kind it is ADME, subcellular.
Data set [7] is described as follows: Metabolic stability in rat liver S9 fraction assessed as compound remaining after 60 mins. In kind it is ADME, subcellular. Conditions: read-out: Stability.
Data set [8] is described as follows: Aqueous solubility of the compound at pH 5. The class given is physicochemical.
Data set [9] can be described thus: Volume of distribution at steady state in rat at 2 to 10 mg/kg, iv. In kind it is ADME, organism-based. Also on record: dose 2-10 mg/kg, route intravenous. Particulars: in vivo, read-out: Vdss.
Data set [10] can be described thus: Thermodynamic solubility of the compound at pH 5. In kind it is physicochemical. Particulars: buffer, read-out: Therm_solubility.
Data set [11] has as its target c-Jun N-terminal kinase, JNK (Homo sapiens, UniProt P45983+P53779+P45984). Nature of the data set: Inhibition of JNK-mediated cJun phosphorylation in anisomysin-stimulated human Jurkat T cells pretreated for 30 mins before anisomysin stimulation measured after 10 mins by DELFIA assay. The class given is cell-based.
Data set [12] is described as follows: Clearance in rat at 2 to 10 mg/kg, iv. Conditions: in vivo. In kind it is ADME, organism-based. Set-up: dose 2-10 mg/kg, route intravenous.
Data set [13] is described as follows: Half life in rat microsomes. The class given is ADME, Microsome.
Data set [14] can be described thus: Half life in human microsomes. The class given is ADME, Microsome.

Each structure is given as a SMILES string. Converted amounts (≈) assume the structure as drawn.

Sequence of Mitogen-activated protein kinase 9 (P45984 whole entry): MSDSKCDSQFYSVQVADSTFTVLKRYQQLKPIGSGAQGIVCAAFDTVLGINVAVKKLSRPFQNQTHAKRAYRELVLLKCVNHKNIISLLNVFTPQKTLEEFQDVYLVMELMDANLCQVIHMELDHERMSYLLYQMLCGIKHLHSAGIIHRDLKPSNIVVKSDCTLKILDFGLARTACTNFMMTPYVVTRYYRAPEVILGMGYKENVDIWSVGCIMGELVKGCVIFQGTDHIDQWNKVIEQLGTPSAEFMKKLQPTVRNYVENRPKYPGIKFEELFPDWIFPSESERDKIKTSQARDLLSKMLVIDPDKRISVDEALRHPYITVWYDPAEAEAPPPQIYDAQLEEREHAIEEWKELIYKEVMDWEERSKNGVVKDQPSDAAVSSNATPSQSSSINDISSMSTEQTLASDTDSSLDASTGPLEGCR
Sequence of Mitogen-activated protein kinase 8 (P45983 whole entry): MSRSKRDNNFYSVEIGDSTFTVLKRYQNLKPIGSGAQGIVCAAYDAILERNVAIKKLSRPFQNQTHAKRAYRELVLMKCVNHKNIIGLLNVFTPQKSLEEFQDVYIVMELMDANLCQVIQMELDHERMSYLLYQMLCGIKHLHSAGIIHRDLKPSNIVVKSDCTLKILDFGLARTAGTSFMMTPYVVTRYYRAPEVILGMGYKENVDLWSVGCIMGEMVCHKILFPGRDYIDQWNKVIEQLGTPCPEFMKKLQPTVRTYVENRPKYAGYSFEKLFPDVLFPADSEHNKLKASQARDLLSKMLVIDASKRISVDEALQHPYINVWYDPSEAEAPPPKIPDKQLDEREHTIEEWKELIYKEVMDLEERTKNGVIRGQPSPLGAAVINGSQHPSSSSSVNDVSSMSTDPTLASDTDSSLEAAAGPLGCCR
Sequence of Mitogen-activated protein kinase 14 (Q16539 whole entry): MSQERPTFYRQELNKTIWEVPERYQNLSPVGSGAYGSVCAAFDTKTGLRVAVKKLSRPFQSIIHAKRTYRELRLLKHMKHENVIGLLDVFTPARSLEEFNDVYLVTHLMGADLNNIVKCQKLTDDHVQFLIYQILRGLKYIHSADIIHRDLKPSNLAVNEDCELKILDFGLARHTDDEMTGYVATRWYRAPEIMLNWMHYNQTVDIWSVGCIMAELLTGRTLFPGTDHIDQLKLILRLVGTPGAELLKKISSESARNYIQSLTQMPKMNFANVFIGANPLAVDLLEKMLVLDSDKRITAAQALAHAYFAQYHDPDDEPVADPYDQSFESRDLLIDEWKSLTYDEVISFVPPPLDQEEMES

Broadly, the IC50 is the concentration at which inhibition is half-maximal. For orientation: solubility means the concentration that dissolves in the medium under given conditions. A high value points to much dissolved substance. Take `O[C@H]1CC[C@H](Nc2ncc3nc(Nc4ccccc4F)n(C4CCCC4)c3n2)CC1`: the IC50 in data set [1] worked out at 0.51 µM; in data set [2] it was 0.01 µM; in data set [3], 0.012 µM; in data set [5], 0.075 µM. The solubility in [4] is below 0.0025 mg/mL.
With `COc1ccc(Nc2ncc3nc(Nc4ccc(F)cc4F)n(C4CCCC4)c3n2)cc1`, the IC50 in [1] is 1.3 µM; in data set [2], 0.13 µM; in data set [3] it was 0.14 µM; in data set [5], 2.5 µM. Moreover, the remaining at 1 h in data set [6] and in data set [7] was above 70% in each case.
In data set [8], `Cl.N[C@H]1CC[C@H](Nc2ncc3nc(Nc4ccc(F)cc4F)n(C4CCCC4)c3n2)CC1` displayed a solubility of 0.0057 mg/mL.
`COc1ccc(Nc2ncc3nc(Nc4ccccc4F)n([C@H]4CC[C@@H](C(N)=O)CC4)c3n2)cc1`: the half-inhibitory concentration (IC50) in [1] was determined as 0.24 µM; in data set [2], 0.022 µM; in data set [3] it was 0.024 µM; in data set [5], 0.18 µM.
For `COc1ccc(Nc2ncc3nc(Nc4ccccc4F)n(-c4ccccc4)c3n2)cc1`, in that order: above 3 µM, 1 µM, above 0.3 µM and above 10 µM.
A word on the clearance: it is the rate of elimination divided by the concentration. A low value points to inefficient removal. Take `N[C@H]1CC[C@H](Nc2ncc3nc(Nc4c(F)cccc4F)n(C4CCCC4)c3n2)CC1`: the IC50 came to 0.49 µM in data set [1]; 0.009 µM in [2]; 0.013 µM in data set [3]; 0.21 µM in data set [11]; 0.091 µM in [5]. Besides, the Vd in data set [9] came to 66 L/kg. Also, the solubility thermodynamic in data set [10] amounted to 0.852 mg/mL (≈ 1990 µM). This compound registered a clearance in [12] of 7.08 L/h/kg.
For `COc1ccc(Nc2ncc3nc(Nc4ccccc4)n(C4CCCC4)c3n2)cc1`, the half-maximal inhibitory concentration (IC50) in data set [1] is above 30 µM; in [2], 0.8 µM; in [3] it was above 1 µM; in [5], above 10 µM. For the same compound, the remaining at 1 h in data set [6] and in data set [7] was above 70% throughout.
As for `COc1ccc(Nc2ncc3nc(Nc4ccccc4F)n(C(C)C)c3n2)cc1`, the IC50 in [1] was 2.1 µM; in data set [2] it was 0.083 µM; in data set [3], 0.096 µM; in data set [5] it was 0.84 µM.
As to `N[C@H]1CC[C@H](Nc2ncc3nc(Nc4c(F)cc(F)cc4F)n(C4CCCC4)c3n2)CC1`, the IC50 worked out at 0.49 µM in [1]; 0.011 µM in data set [2]; 0.016 µM in [3]; 0.24 µM in data set [11]; 0.15 µM in data set [5]. Also, in [9], the Vd is 90 L/kg. Further, the solubility thermodynamic in [10] is above 1 mg/mL. In data set [12], this compound had a clearance of 5.28 L/h/kg.
Usually half-life stands for how long it takes for the measured level to halve. With `COc1ccc(Nc2ncc3nc(Nc4ccccc4F)n(C4CCCC4)c3n2)cc1`, the IC50 in [1] is above 3 µM; in data set [2] it was 0.12 µM; in data set [5], 1.1 µM. For the same compound, the half-life in data set [13] was 1.68 h; in data set [14], 1.03 h. The values for the remaining at 1 h in data set [6] and in data set [7] were 86% and 35%, respectively. Moreover, the solubility in [4] came to 0.447 mg/mL (≈ 1070 µM).
For `CCNc1ncc2nc(Nc3ccccc3F)n(C3CCCC3)c2n1`, the IC50 in data set [1] was determined as 2.6 µM; in [2], 0.14 µM; in [3], 0.26 µM; in data set [5] it was 1.8 µM.
For the compound `N[C@H]1CC[C@H](Nc2ncc3nc(Nc4ccccc4F)n(C4CCCC4)c3n2)CC1`, the IC50 in data set [1] was 0.21 µM; in data set [2], 0.026 µM; in [3] it was 0.031 µM; in data set [11], 0.3 µM; in data set [5], 0.23 µM. In addition, the solubility thermodynamic in data set [10] turned out to be 0.869 mg/mL (≈ 2120 µM).
As to `COc1ccc(Nc2ncc3nc(Nc4ccccc4F)n(C4CCOCC4)c3n2)cc1`, the IC50 in data set [1] was 2.8 µM; in data set [2], 0.052 µM; in data set [3], 0.063 µM; in data set [5] it was 0.49 µM.
Consider `Fc1ccccc1Nc1nc2cnc(NC3CCCCC3)nc2n1C1CCCC1`, for which the IC50 is 1.5 µM in data set [1], 0.046 µM in data set [2], 0.05 µM in data set [3] and 0.58 µM in [5].
For `CC(C)Nc1ncc2nc(Nc3ccccc3F)n(C3CCCC3)c2n1`, in that order: 1.2 µM, 0.066 µM, 0.11 µM and 0.8 µM.
Regarding `COc1ccc(Nc2ncc3nc(Nc4c(F)cccc4F)n(C4CCCC4)c3n2)cc1`, the IC50 in data set [1] was determined as 3.5 µM; in data set [2], 0.046 µM; in data set [3], 0.13 µM; in data set [5], 1.1 µM. In addition, the remaining at 1 h in data set [6] and in data set [7] was above 70% in each case.
As for `CCn1c(Nc2ccccc2F)nc2cnc(Nc3ccc(OC)cc3)nc21`, the IC50 amounted to 9.3 µM in [1], 0.43 µM in [2], 0.36 µM in data set [3] and 3.6 µM in [5].
Consider `COc1ccc(Nc2ncc3nc(Nc4ccccc4F)n([C@H]4CC[C@@H](O)CC4)c3n2)cc1`, for which the 50% inhibitory concentration (IC50) in data set [1] amounted to 1.6 µM; in data set [2], 0.014 µM; in data set [3], 0.017 µM; in data set [5] it was 0.16 µM.
On to `COc1ccc(Nc2ncc3nc(Nc4ccccc4Cl)n(C4CCCC4)c3n2)cc1`, for which the IC50 in [1] was above 30 µM; in data set [2], above 10 µM; in [3] it was above 10 µM; in data set [5], above 10 µM. The remaining at 1 h in data set [6] and in data set [7] was above 70% throughout.
As to `CNc1ncc2nc(Nc3ccccc3F)n(C3CCCC3)c2n1`, the 50% inhibitory concentration (IC50) is above 30 µM in data set [1], 0.36 µM in data set [2], 0.68 µM in data set [3] and 6.3 µM in [5].
Regarding `COc1ccc(Nc2ncc3nc(Nc4ccccc4F)n(C4CCCCC4)c3n2)cc1`, the IC50 is above 3 µM in data set [1], 0.14 µM in data set [2], 0.36 µM in [3] and 2.9 µM in data set [5].
As to `COc1ccc(Nc2ncc3nc(Nc4ccccc4F)n([C@H]4CC[C@H](N)CC4)c3n2)cc1`, the IC50 in data set [1] was determined as 0.21 µM; in data set [2] it was 0.24 µM; in [3], 0.24 µM; in [5], 2.6 µM.
